According to ChEMBL document CHEMBL1201862, “PubChem BioAssay data set” (2004):
The source made the active and inactive calls. Rule as the data show it, for most assays here: actives have a measured EC50 and inactives only a lower limit.

How the values were obtained:
[1] = biological target: T1, Aspartyl aminopeptidase (Plasmodium falciparum 3D7, UniProt Q8I2J3); test: Counterscreen for inhibitors of M1 and M17 aminopeptidases: QFRET-based biochemical high throughput dose response assay for inhibitors of the Plasmodium falciparum M18 Aspartyl Aminopeptidase (PFM18AAP). [Related PubChem assays: 1619 (Screening assay (M17LAP inhibitors).), 1445 (Screening assay (M1AAP inhibitors).)]
T1 sequence (Q8I2J3 whole entry): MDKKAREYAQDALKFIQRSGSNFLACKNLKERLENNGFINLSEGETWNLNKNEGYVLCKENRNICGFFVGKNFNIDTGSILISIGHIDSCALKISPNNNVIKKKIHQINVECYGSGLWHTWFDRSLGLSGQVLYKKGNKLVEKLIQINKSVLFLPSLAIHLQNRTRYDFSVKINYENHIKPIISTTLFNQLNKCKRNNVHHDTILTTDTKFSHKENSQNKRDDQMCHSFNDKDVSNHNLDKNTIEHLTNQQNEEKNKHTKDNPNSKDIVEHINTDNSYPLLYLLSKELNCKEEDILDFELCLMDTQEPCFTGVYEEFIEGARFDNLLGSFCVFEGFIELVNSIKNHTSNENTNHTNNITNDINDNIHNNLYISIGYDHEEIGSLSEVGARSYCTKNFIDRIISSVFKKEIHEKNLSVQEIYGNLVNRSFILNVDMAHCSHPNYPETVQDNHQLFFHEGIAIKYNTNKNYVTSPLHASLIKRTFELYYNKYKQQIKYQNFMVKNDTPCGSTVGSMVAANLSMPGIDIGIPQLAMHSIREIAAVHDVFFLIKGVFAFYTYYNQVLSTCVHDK

[2] = biological target: Procathepsin L (Homo sapiens, UniProt P07711); test: CTSL1 protease inhibition – biochemical, QFRET, 1536-well, counter-screen for M1/M17 aminopeptidase inhibitor project, dose response (AID 2214)
[3] = biological target: T2, Leucine aminopeptidase (Plasmodium falciparum 3D7, UniProt Q8IL11); test: P. falciparum M17LAP inhibitors, primary screen, biochemical, fluorogenic H-Leu-NHMec substrate, 1536-well (AID 1619); assay type: functional
T2 sequence (Q8IL11 whole entry): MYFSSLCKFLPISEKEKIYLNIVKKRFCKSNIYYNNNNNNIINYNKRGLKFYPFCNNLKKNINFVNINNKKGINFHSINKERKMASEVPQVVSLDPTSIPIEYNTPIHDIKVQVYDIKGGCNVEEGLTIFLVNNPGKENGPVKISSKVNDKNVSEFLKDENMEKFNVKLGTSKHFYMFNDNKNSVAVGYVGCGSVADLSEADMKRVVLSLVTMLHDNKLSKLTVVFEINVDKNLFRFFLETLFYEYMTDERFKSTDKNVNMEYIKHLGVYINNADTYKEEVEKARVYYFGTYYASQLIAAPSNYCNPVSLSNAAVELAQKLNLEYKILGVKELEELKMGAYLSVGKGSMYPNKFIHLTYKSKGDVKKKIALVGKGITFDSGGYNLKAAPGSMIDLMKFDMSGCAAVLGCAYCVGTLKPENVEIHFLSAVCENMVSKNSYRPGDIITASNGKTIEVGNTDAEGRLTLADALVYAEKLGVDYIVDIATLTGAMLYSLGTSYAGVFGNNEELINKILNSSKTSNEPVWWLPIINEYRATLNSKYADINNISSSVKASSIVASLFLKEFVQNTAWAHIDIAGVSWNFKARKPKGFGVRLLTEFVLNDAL

[4] = system: BJ; test: BJ-TERT fibroblast viability loss – cell-based, RAS-independent, luminescence, dose response (AID 1933); assay type: functional; settings: Homo sapiens
[5] = cAMP pathway inhibition in counterscreen cell line – TR-FRET cAMP detection, counter-screen for MC4R biased antagonist project, dose response (AID 602305); assay type: functional, cell-based;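 also: U2OS cells stimulated with forskolin near its EC80 as the cAMP inducer; potency is for inhibition of forskolin-stimulated cAMP signaling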
[6] = system: BJ; test: BJ-TERT-LT-ST fibroblast viability loss – cell-based, RAS-independent, luminescence, dose response (AID 1935); assay type: functional; settings: Homo sapiens;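 also: BJ fibroblasts immortalized with TERT plus LT and ST oncogenes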
[7] = fluconazole-exposed Candida albicans growth modulators – fluorescence, retest, confirmation (AID 2467); assay type: functional, cell-based
[8] = viability of HCT116 lacking mutant beta-catenin – cell-based, human colon tumor, dose response (AID 1045); assay type: functional;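 also: HCT116 colon tumor cells with beta catenin knocked out; cells exposed to compound for 60 hours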
[9] = NIH-3T3 fibroblast cytotoxicity, dose response, cytotoxicity control, cell-based, fluorescence, Alamar Blue, secondary assay (AID 2327); assay type: functional;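 also: NIH-3T3 mouse fibroblasts cultured with fluconazole at 8 µg/mL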
[10] = biological target: Melanocortin receptor 4 (Homo sapiens, UniProt P32245); test: inhibitors of MC4R cAMP signaling – cell-based, TR-FRET, biased antagonists, dose response (AID 602298); assay type: functional;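 also: antagonist potency against agonist-stimulated cAMP production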
[11] = DRD fibroblast viability loss – cell-based, non-viral oncogenic, luminescence, dose response (AID 1934); assay type: functional; settings: Homo sapiens
[12] = biological target: T3, Serine/threonine-protein phosphatase (Candida dubliniensis (strain CD36 / CBS 7987 / NCPF 3949 / NRRLY-17841) (Yeast), UniProt B9W6M3); test: blockers of CaCl2-induced CDRE-lacZ signaling – S. cerevisiae, luminescence, secondary, dose response (AID 2388); assay type: functional, cell-based;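 also: yeast reporter cells carrying a calcineurin-responsive lacZ construct stimulated with calcium chloride; luminescent beta-galactosidase reporter signal in whole cells rather than isolated phosphatase activity; potency for inhibition where a drop in reporter signal means calcineurin blockade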
T3 sequence (B9W6M3 whole entry): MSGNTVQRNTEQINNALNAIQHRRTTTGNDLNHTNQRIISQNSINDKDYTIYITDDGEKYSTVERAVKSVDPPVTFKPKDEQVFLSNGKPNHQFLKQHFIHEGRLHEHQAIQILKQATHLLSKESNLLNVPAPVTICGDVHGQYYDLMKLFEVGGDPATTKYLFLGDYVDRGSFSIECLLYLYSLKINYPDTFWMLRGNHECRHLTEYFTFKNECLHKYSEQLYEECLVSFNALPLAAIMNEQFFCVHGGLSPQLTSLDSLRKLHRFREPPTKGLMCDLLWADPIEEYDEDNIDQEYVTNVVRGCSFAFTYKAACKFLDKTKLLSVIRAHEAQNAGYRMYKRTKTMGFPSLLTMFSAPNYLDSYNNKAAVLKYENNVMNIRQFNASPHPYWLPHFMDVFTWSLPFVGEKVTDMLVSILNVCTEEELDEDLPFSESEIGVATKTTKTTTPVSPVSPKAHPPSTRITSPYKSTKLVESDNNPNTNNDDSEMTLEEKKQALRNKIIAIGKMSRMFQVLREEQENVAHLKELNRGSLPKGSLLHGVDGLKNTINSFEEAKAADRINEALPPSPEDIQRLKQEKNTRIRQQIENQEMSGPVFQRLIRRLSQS

[13] = system: BJ; test: growth inhibition of engineered Ras-driven BJ cells – cell-based, alamar blue fluorescence, cherrypicked samples, dose response (AID 2631); assay type: functional; settings: Homo sapiens;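 also: confirmatory dose-response assay in RAS-dependent BJ fibroblasts engineered with TERT, LT and ST, with cytotoxicity read by fluorescence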
[14] = luciferase reporter signal suppression in cells – H4 neuroglioma cells, luminescence, dose response (AID 1990); assay type: functional, cell-based
[15] = biological target: Paired box protein Pax-8 (Homo sapiens, UniProt Q06710); test: PAX8 transcriptional activity inhibition in RMG-I – RMG-I cells, luciferase, cherry-pick, dose response (AID 687027); assay type: functional, cell-based;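 also: luciferase reporter driven by Pax8 target thyroperoxidase promoter measured by SteadyGlo luminescence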
[16] = Luminescence Cell-Based Dose Response HTS to Identify Inhibitors of 5'UTR Stem-Loop Driven Prion Protein mRNA Translation in H4 Neuroglioblastoma Cells. [Related pubchem assays: 1827 (Project Summary), 1813 (Primary HTS)]; assay type: functional
[17] = system: BJ; test: cells; assay type: functional, cell-based; settings: Homo sapiens
[18] = viability of PTEN-deleted HCT116 cells – cell-based, HCT116 PTEN knockout, dose response (AID 1047); assay type: functional;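 also: HCT116 colon tumor cells with PTEN knocked out; cells exposed to compound for 60 hours before readout; potency for loss of cell viability measured by luminescence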
[19] = alpha-synuclein stem-loop luciferase translation blockers – H4 neuroglioma cells, luminescence, confirmation (AID 1988); assay type: functional, cell-based
[20] = biological target: ATP-dependent molecular chaperone HSP82 (Candida albicans (strain WO-1) (Yeast), UniProt C4YTQ8); test: steroid-induced GRE reporter decrease in yeast – S. cerevisiae, luminescence, Hsp90 inhibitor project, dose response (AID 2400); assay type: functional, cell-based;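 also: beta-galactosidase luminescence from glucocorticoid response element reporter as proxy for Hsp90 function; inhibitor potency where signal loss means Hsp90 inhibition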
[21] = Luminescence-based dose response cell-based high throughput screening assay for cytotoxic compounds using the IEC-6 intestinal epithelial cell line. [Related pubchem assays: 1858 (Summary AID.), 1825 (Counterscreen.), 1907 (Confirmation screen.)]; assay type: functional
[22] = biological target: Voltage-gated inwardly rectifying potassium channel KCNH2 (Homo sapiens, UniProt Q12809); test: concentration-dependent hERG rescue from blockers – cell-based, thallium flux, dose response (AID 2121); assay type: ADME
[23] = NIH3T3 cell viability loss – ATP luminescence, mouse fibroblasts, counter-screen, dose response (AID 2010); assay type: functional, cell-based;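 also: cells exposed to compound for about 90 hours before reading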
[24] = system: INS1; test: INS-1E survival protection against cytokine death – cell-based, luminescence, retest, dose response (AID 449756); assay type: functional; settings: Rattus norvegicus;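 also: cell death triggered by IL-1 beta plus TNF-alpha plus IFN-gamma mixture; protective hits raise ATP signal compared with cytokine alone wells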
[25] = cells; assay type: functional, cell-based
[26] = system: Streptococcus; test: GAS UMAA2166 growth inhibition – luminescence, BacTiterGlo, counter-screen for streptokinase expression inhibitor project, dose response (AID 1915); assay type: functional, organism-based;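 also: potency for reduction of bacterial viability or growth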
[27] = cells; assay type: functional, cell-based; remark: listed apart in the source
[28] = Trypanosoma cruzi growth suppression in host cells – NIH3T3 host cells, beta-gal luminescence, confirmation (AID 2044); assay type: functional, cell-based;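 also: intracellular parasites grown in NIH/3T3 mouse fibroblasts as host cells; luminescent beta-galactosidase reporter signal from transgenic T. cruzi replicating inside host cells; inhibitors lower the luminescence signal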
[29] = system: Streptococcus sp. 'group A'; test: Streptococcus pyogenes SK(-)GAS viability under kanamycin – luminescence, BacTiterGlo, confirmation, counter-screen for streptokinase expression inhibitor project, dose response (AID 1900); assay type: functional, organism-based
[30] = biological target: Galanin receptor type 2 (Homo sapiens, UniProt O43603); test: Dose Response cell-based high-throughput screening assay to identify antagonists of galanin receptor 2 (GALR2). [Related pubchem assays: 828, 866 ]; assay type: functional
[31] = biological target: T4, Aryl hydrocarbon receptor (Homo sapiens, UniProt P35869); test: Luminescence-based cell-based high throughput dose response assay for activators of the Aryl Hydrocarbon Receptor (AHR). [Related pubchem assays: 2796 (Primary screen (AHR activators in singlicate)), 2845 (Confirmation screen (AHR activators in triplicate)), 434939 (Counterscreen (PXR activators in triplicate)), 2804 (Summary (AHR activators))]; assay type: ADME
T4 sequence (P35869 whole entry): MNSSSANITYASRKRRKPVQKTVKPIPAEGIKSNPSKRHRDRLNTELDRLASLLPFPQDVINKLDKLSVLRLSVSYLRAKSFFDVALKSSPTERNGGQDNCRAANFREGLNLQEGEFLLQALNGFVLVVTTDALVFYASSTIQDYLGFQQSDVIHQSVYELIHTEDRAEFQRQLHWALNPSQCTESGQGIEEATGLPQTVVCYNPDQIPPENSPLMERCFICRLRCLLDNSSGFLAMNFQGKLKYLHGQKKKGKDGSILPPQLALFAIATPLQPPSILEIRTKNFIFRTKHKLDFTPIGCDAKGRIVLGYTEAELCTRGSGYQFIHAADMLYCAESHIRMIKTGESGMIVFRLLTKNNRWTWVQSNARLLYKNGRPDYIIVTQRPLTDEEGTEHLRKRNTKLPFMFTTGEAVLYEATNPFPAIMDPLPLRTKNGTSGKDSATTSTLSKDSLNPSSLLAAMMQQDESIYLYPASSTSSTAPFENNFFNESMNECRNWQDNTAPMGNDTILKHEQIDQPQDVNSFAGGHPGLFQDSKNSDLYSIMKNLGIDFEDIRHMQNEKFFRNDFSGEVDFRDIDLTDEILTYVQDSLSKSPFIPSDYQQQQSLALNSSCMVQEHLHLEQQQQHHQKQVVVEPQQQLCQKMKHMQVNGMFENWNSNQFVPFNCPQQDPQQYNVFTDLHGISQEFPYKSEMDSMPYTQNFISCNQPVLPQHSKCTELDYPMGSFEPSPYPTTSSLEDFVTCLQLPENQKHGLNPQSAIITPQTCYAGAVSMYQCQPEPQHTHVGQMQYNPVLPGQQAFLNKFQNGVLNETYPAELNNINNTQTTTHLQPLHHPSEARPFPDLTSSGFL

Sequence of Procathepsin L (P07711 whole entry): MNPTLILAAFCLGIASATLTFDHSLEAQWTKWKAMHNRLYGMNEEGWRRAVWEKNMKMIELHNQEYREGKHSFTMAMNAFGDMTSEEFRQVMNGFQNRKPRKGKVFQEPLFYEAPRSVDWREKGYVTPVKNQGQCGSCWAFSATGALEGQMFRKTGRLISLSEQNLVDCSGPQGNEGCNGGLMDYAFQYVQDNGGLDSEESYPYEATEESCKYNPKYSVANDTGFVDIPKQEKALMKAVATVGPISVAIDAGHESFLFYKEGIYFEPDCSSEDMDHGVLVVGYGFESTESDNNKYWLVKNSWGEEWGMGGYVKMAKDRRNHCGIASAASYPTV
Sequence of Melanocortin receptor 4 (P32245 whole entry): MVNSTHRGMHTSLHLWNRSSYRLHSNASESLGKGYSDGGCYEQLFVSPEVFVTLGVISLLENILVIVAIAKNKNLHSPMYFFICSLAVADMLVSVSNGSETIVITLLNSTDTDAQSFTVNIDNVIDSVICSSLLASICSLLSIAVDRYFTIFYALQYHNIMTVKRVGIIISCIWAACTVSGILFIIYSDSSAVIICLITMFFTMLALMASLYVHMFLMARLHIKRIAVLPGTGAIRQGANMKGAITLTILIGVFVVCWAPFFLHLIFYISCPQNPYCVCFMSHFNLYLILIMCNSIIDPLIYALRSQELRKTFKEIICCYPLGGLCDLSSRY
Sequence of Paired box protein Pax-8 (Q06710 whole entry): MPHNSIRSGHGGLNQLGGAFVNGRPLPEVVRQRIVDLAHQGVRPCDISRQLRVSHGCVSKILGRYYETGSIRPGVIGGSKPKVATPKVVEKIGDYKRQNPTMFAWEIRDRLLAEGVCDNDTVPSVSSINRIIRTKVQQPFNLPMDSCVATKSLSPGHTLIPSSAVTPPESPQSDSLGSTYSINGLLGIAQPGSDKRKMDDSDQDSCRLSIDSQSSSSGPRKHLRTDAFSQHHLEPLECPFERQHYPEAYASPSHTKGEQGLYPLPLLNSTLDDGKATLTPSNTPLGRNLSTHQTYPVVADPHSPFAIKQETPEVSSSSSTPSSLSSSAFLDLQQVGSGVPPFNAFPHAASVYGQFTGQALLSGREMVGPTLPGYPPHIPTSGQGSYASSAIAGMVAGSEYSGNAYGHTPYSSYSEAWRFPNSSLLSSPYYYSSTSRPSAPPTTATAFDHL
Sequence of Galanin receptor type 2 (O43603 whole entry): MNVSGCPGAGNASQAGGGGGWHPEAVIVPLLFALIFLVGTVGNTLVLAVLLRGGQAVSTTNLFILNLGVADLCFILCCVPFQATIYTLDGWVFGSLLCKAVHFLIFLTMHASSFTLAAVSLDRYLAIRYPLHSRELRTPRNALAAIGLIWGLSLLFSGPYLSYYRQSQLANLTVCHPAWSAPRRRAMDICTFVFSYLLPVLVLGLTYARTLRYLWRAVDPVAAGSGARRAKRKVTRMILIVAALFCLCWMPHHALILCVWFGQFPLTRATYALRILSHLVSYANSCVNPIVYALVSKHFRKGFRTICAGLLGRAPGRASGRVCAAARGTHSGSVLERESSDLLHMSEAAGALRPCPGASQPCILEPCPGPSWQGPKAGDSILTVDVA
Sequence of Voltage-gated inwardly rectifying potassium channel KCNH2 (Q12809 whole entry): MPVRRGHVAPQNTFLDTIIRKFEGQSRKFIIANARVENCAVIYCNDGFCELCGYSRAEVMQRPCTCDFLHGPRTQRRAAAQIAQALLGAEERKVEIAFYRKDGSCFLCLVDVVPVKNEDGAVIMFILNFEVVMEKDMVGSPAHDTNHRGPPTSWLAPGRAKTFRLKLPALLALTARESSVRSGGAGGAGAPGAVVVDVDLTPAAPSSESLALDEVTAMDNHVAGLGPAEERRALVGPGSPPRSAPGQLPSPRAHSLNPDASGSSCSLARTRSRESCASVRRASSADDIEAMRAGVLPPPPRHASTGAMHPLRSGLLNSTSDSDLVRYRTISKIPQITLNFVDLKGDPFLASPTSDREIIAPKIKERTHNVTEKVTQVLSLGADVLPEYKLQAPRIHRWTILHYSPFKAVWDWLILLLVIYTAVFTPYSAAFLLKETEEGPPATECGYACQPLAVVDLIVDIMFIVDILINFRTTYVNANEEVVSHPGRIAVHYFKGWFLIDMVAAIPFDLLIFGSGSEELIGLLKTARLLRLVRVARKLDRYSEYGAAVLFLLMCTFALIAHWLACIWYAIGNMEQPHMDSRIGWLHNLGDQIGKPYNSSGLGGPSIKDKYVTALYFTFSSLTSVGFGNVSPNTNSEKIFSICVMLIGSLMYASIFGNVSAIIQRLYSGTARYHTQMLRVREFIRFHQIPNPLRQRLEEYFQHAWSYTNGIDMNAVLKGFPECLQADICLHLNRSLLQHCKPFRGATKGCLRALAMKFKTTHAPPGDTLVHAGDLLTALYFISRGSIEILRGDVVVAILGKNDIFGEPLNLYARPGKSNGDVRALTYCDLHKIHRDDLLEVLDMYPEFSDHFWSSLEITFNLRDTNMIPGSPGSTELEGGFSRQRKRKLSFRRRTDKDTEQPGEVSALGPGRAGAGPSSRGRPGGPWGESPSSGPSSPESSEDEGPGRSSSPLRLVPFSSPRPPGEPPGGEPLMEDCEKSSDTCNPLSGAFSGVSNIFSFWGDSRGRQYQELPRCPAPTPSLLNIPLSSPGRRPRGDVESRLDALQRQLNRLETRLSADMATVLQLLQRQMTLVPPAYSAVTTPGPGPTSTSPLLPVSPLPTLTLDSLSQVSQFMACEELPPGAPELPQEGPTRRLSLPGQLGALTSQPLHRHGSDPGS
Sequence of ATP-dependent molecular chaperone HSP82 (C4YTQ8 whole entry): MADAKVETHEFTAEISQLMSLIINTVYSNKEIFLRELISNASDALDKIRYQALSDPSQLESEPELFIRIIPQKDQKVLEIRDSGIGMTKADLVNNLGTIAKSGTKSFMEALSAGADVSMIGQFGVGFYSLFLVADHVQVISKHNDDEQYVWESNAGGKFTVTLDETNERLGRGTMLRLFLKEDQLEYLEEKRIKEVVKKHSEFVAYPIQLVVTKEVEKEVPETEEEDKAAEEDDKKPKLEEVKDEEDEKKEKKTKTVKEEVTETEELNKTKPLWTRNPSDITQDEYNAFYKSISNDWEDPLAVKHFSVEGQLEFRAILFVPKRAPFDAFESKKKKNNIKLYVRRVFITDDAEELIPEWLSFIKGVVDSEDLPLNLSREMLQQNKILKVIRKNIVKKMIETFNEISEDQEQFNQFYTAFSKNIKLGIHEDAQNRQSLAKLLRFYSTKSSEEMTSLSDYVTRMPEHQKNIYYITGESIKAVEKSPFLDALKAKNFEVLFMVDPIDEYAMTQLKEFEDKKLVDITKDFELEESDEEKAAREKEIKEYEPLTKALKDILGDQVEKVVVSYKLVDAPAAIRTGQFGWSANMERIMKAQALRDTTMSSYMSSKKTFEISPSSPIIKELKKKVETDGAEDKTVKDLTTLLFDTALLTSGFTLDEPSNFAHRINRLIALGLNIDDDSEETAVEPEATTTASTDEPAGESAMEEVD

Compound: N#Cc1c(NC(=O)C2C3C=CC(C3)C2C(=O)O)sc2c1CCCCC2 (stereo unspecified)
- IC50 [1]: > 73.5 µM (not active)
- IC50 [2]: > 59.6 µM (not active)
- IC50 [3]: 1.39 µM (active)

Compound: O=C(NC(Nc1nc2ccc([N+](=O)[O-])cc2s1)(C(F)(F)F)C(F)(F)F)c1ccccc1Cl
- EC50 [4]: 1.35 µM (active)
- IC50 [5]: > 64.6 µM (inactive)
- EC50 [6]: 5.65 µM (inconclusive)
- EC50 [7]: 0.758 µM (active)
- EC50 [8]: 0.242 µM (active)
- EC50 [9]: 12.3 µM (active)
- IC50 [10]: > 64.6 µM (inactive)
- EC50 [11]: 1.81 µM (active)
- EC50 [12]: > 180 µM (inactive)
- EC50 [13]: 1.11 µM (active)
- EC50 [14]: 0.266 µM (active)
- AC50 [15]: 0.676 µM (active)
- EC50 [16]: 6.53 µM (active)
- EC50 [17]: 1.41 µM (active)
- EC50 [18]: 0.234 µM (active)
- EC50 [19]: 0.242 µM (active)
- EC50 [20]: 22.6 µM (active)
- IC50 [21]: 1.64 µM (active)

Compound: Cc1ccc(N=Nc2ccc(O)c3ncccc23)cc1
- EC50 [22]: 2.02 µM (active)
- EC50 [23]: 32.7 µM (active)
- AC50 [24]: 1.3 µM (active)
- EC50 [25]: 9.69 µM (active)
- EC50 [26]: 1.56 µM (active)
- EC50 [27]: > 350 µM (not active)
- EC50 [28]: 0.686 µM (active)
- EC50 [29]: 0.165 µM (active)

Compound: CCOC(=O)c1ccc(N2C(=O)CC(N3CCC(O)(c4ccc(Br)cc4)CC3)C2=O)cc1 (stereo unspecified)
- IC50 [30]: > 42 µM (not active)

Compound: CC(=O)c1noc(C)c1C(=O)Nc1nccs1
- EC50 [31]: 6.46 µM (active)
